Structures are written as SMILES.

For this assay, the system named is phosphorylation of Serine 473 in Akt in MDA-MB-468 human breast adenocarcinoma cells. The assay is described as follows: In vitro phospho-Ser473 Akt assay (Test (c)). To be noted: Homo sapiens, MDA-MB-468, 2 h, MDA-MB-468 cells, 2 hours incubation; read-out: Test (c): IC50 versus Serine 473 in Akt. The format is cell-based. In a few lines:
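MDA-MB-468 cells (15000/well, adhered overnight) treated with compound for 2 h at 37 °C, 5% CO2. After formaldehyde fixation, permeabilisation and blocking, phospho-Akt Ser473 immunostained with Alexafluor488 secondary and quantified by laser-scanning imaging (Acumen Explorer); IC50 from fluorescence dose–response.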
What is called IC50 is the concentration at which inhibition is half-maximal. For the molecule `CC(C)NC(=O)Nc1ccc(-c2nc(CS(=O)(=O)c3ccc(F)cc3)cc(N3CCOC[C@@H]3C)n2)cc1` [Example 61b, 1-[4-[4-[(4-fluorophenyl)sulfonylmethyl]-6-[(3S)-3-methylmorpholin-4-yl]pyrimidin-2-yl]phenyl]-3-propan-2-yl-urea], the IC50 was determined as 38 nM.

`C[C@H]1COCCN1c1cc(CS(=O)(=O)c2ccc(F)cc2)nc(-c2ccc(NC(=O)NCCO)cc2)n1` [Example 61c, 1-[4-[4-[(4-fluorophenyl)sulfonylmethyl]-6-[(3S)-3-methylmorpholin-4-yl]pyrimidin-2-yl]phenyl]-3-(2-hydroxyethyl)urea]: the IC50 worked out at 410 nM.

With `C[C@H]1COCCN1c1cc(CS(=O)(=O)c2ccc(F)cc2)nc(-c2ccc(NC(=O)NC(C)(C)CO)cc2)n1` [Example 61d, 1-[4-[4-[(4-fluorophenyl)sulfonylmethyl]-6-[(3S)-3-methylmorpholin-4-yl]pyrimidin-2-yl]phenyl]-3-(1-hydroxy-2-methyl-propan-2-yl)urea], the IC50 came out at 180 nM.

For `C[C@H]1COCCN1c1cc(CS(=O)(=O)c2ccc(F)cc2)nc(-c2ccc(NC(=O)NCCN(C)C)cc2)n1` [Example 61e, 3-(2-dimethylaminoethyl)-1-[4-[4-[(4-fluorophenyl)sulfonylmethyl]-6-[(3S)-3-methylmorpholin-4-yl]pyrimidin-2-yl]phenyl]urea], the IC50 is 120 nM.

Regarding `CC(C)CNC(=O)Nc1ccc(-c2nc(CS(=O)(=O)c3ccc(F)cc3)cc(N3CCOC[C@@H]3C)n2)cc1` [Example 61g, 1-[4-[4-[(4-fluorophenyl)sulfonylmethyl]-6-[(3S)-3-methylmorpholin-4-yl]pyrimidin-2-yl]phenyl]-3-(2-methylpropyl)urea], the IC50 was 450 nM.

Regarding `C[C@H]1COCCN1c1cc(CS(=O)(=O)c2ccc(F)cc2)nc(-c2ccc(NC(=O)NCCCO)cc2)n1` [Example 61h, 1-[4-[4-[(4-fluorophenyl)sulfonylmethyl]-6-[(3S)-3-methylmorpholin-4-yl]pyrimidin-2-yl]phenyl]-3-(3-hydroxypropyl)urea], the IC50 stood at 790 nM.

For the molecule `CNC(=O)Nc1ccc(-c2nc(N3CCOC[C@@H]3C)cc(C(C)(C)S(=O)(=O)c3ccc(F)cc3)n2)cc1` [Example 61k, 1-[4-[4-[2-(4-fluorophenyl)sulfonylpropan-2-yl]-6-[(3S)-3-methylmorpholin-4-yl]pyrimidin-2-yl]phenyl]-3-methyl-urea], the IC50 amounted to 120 nM.

`CCNC(=O)Nc1ccc(-c2nc(N3CCOC[C@@H]3C)cc(C(C)(C)S(=O)(=O)c3ccc(F)cc3)n2)cc1` [Example 61l, 1-ethyl-3-[4-[4-[2-(4-fluorophenyl)sulfonylpropan-2-yl]-6-[(3S)-3-methylmorpholin-4-yl]pyrimidin-2-yl]phenyl]urea]: the IC50 was determined as 99 nM.

As to `CC(C)NC(=O)Nc1ccc(-c2nc(N3CCOC[C@@H]3C)cc(C(C)(C)S(=O)(=O)c3ccc(F)cc3)n2)cc1` [Example 61m, 1-[4-[4-[2-(4-fluorophenyl)sulfonylpropan-2-yl]-6-[(3S)-3-methylmorpholin-4-yl]pyrimidin-2-yl]phenyl]-3-propan-2-yl-urea], the IC50 turned out to be 30 nM.

Regarding `C[C@H]1COCCN1c1cc(C(C)(C)S(=O)(=O)c2ccc(F)cc2)nc(-c2ccc(NC(=O)NC3CCC3)cc2)n1` [Example 61n, 3-cyclobutyl-1-[4-[4-[2-(4-fluorophenyl)sulfonylpropan-2-yl]-6-[(3S)-3-methylmorpholin-4-yl]pyrimidin-2-yl]phenyl]urea], the IC50 was determined as 38 nM.

Consider `C[C@H]1COCCN1c1cc(C(C)(C)S(=O)(=O)c2ccc(F)cc2)nc(-c2ccc(NC(=O)NCCN(C)C)cc2)n1` [Example 61o, 3-(2-dimethylaminoethyl)-1-[4-[4-[2-(4-fluorophenyl)sulfonylpropan-2-yl]-6-[(3S)-3-methylmorpholin-4-yl]pyrimidin-2-yl]phenyl]urea], for which the IC50 is 45 nM.

The values are drawn from patent US7750003B2, “Compounds-943” (AstraZeneca AB, priority 2006, dated 2010).
